# Structures can show the parent of a compound that is named as a salt. Where two headings read alike, the source gives them in different places.
# Columns and labels:
# Plasmodium falciparum = assay: In vitro test of inhibitory activity against proliferation of malarial parasites in human red blood cells; format: cell-based; conditions: for Selective toxicity: ratio of EC50 for the F28-7 cell line to EC50 for the malarial parasite (P. falciparum FCR-3 strain); for Rate (%) of proliferation of malarial parasite: 72 hours
# Description: In this test Example, two strains of Plasmodium falciparum, namely strain FCR-3 (ATCC 30932) and strain Honduras-1 (ATCC 30950) were used as the malarial parasites to be tested, and each malarial strain was incubated separately in vitro as described below. […] The resulting culture medium as supplemented with the human serum was then adjusted to have a hematocrit level (namely, a ratio of the total volume of the red blood cells to the volume of the liquid culture medium comprising the suspended red blood cells) of 5%, and thereafter the culture medium as adjusted was placed in individual wells of 24-well incubation microplates. The culture medium in each well was inoculated with Plasmodium falciparum under test. The initial rate (%) of infection of the red blood cells with the malarial parasite in individual wells was then adjusted to a value of 0.1% at the start of the incubation. Thereafter, there was carried out the incubation of the red blood cells along with the infecting Plasmodium falciparum. This incubation was effected at 36.5° C. in an atmosphere comprising 5.0% oxygen, 5.0% carbon dioxide and 90% nitrogen.
# The culture medium present in each well was daily changed freshly. At the time when the rate (%) of infection of the red blood cells with the malarial parasite increased to reach a value of 4%, the transfer of the incubated cultures to another incubation microplates was conducted. Thus, the cultures of the malarial parasites under test were prepared.
# By the way, the rate (%) of infection of the red blood cells with the malarial parasite as above-mentioned was evaluated by a procedure that comprised removing a sample from the culture of the parasitized red blood cells in each well, preparing thin blood film specimen containing the red blood cells from each sample, staining said thin blood film specimen by means of Giemsa staining or Diff-Qick staining method, counting the number of the stained red blood cells as infected with the malarial parasite per one thin blood film, under a microscope (oil immersion; 1,000×), and calculating the rate (%) of infection of the red blood cells with malarial parasite according to the undermentioned equation: [formula]
# In turn, the abovementioned culture of the parasitized red blood cells as prepared in the above was subjected to a centrifugation to collect the red blood cells which had been infected with the malarial parasite. The infected red blood cells so collected were washed with an PRMI 1640 medium supplemented with the human serum, and then were added with such red blood cells which were not yet infected with the malarial parasite. Thus, there was prepared such a culture of the malarial parasite having infected the red blood cells, in which the initial rate (%) of infection of the red blood cells with the malarial parasite had firstly been adjusted to a value of 0.3%. The hematocrit level of this culture of the malarial parasite so prepared at this time point was 3%.
# On the other hand, the compound to be tested in the present experiments was previously prepared in the form of a solution of each compound dissolved in a sterilized water, dimethylformamide (DMF) or dimethylsulfoxide (DMSO).
# (i) The culture medium to be used for incubation of malarial parasite as above-mentioned was placed in individual wells of a multidish 24-wells. Then, for the treated test groups, each solution of the test compound as previously prepared in the above was added in an amount of 5 to 10 microliters (μl) into each well containing said culture medium therein. Then, the concentration of the test compound as added to the culture medium present in the individual wells of the multidish 24-well microplates was adjusted to different values in the individual wells. The test was carried out in duplicate or triplicate. On the other hand, for the control test groups (untreated), no test compound was added to each well, but instead thereof sterilized water, DMF or DMSO was added thereto in an amount of 10 μl.
# [1] = system: subclone F28-7 cells of FM3A cell line originating from a mouse mammary tumor; assay: Toxicity of test compound against subclone F28-7 cells of FM3A cell line (cell proliferation); format: cell-based; conditions: for EC50: Mus musculus, FM3A; for Rate (%) of proliferation of cells of the F28-7 cell line: 48 hours
# Description: Cells of subclone F28-7 cell line of a mouse mammary tumor, which is a wild type cell line of the FM3A cell line originating from a mouse mammary tumor, were used as the test cells. The culture medium to be used for cultivation of the cells of the subclone F28-7 cell line was prepared by supplementing an ES medium with 2% of a heat-inactivated fetal bovine serum. The cultivation of the subclone F28-7 cell line under test was effected in this serum-supplemented ES medium at 37° C. in air containing 5% CO2.
# After the pre-cultivation was effected, the cell density of cells of the subclone F28-7 cell line which had entered the logarithmic proliferation phase was adjusted to a level of 5×10^4 cells/ml by diluting the culture of the cells with a volume of the fresh culture medium. Thus, there was prepared a cell suspension of cells of the subclone F28-7 cell line as cultured.
# For the solution of the test compound, there was used the same solution as that which was hereinbefore prepared in the test for the determination of the antimalarial activity of the test compound against the proliferation of malarial parasite.
# The culture medium to be used for the cultivation of the subclone F28-7 cell line above mentioned was placed in the individual wells of a multidish 24-wells. Then, for the treated test groups, the solution of the test compound was added in an amount of 5˜10 microliters to the culture medium in each well of the incubation plate so as to adjust a final concentration of the test compound as added to be 1×10^−4 to 1×10^−6 M.
# The test was carried out in duplicate or triplicate. On the other hand, for the control test groups (untreated), no test compound was added to each well, but instead thereof a sterilized water, DMF or DMSO was added to each well in an amount of 10 μl. Then, the cell suspension of cells of the subclone F28-7 cell line as already prepared in the above was dispensed in an amount of 990-995 μl to each well by pipetting. The pipetting was effected carefully and gently, so that the cells as added were evenly suspended in the culture medium in each well. Thereafter, the cells of subclone F28-7 cell line were incubated for 48 hours under the aforesaid cultivating conditions. Then, the number of the cells of the subclone F28-7 cell line was counted by means of a microcell counter (CC-108, Toa Medical Electric Co.) for the cell culture as obtained in the individual wells of both the treated test groups and the control test (untreated) groups.
# The inhibitory activity of the test compound against the proliferation of cells of the subclone F28-7 cell line was subsequently estimated from such value of the rate (%) of the proliferation of cells of the subclone F28-7 cell line which is defined by the undermentioned equation with reference to the counted number of cells of the subclone F28-7 cell line in the cell culture contained in each well and having been incubated in the presence of the test compound added for the treated test group, and with reference to the counted number of cells of the subclone F28-7 cell line having been incubated in the absence of the test compound for the control test group. The toxicity of the test compound was thus evaluated from the value of the rate (%) of proliferation of cells of the subclone F28-7 cell line so estimated. [formula]
# [2] = system: Plasmodium berghei NK65 strain; assay: In vivo test of antimalarial activity against malarial parasite in infected ICR mice; conditions: ICR mice infected with P. berghei NK65, dose of 5 mg/kg, printed 'intravenous injection', once a day on Day 0 and Day 1, blood read on Day 4
# Description: As mice for this test, there were used ICR mice (male) of 5-weeks old with body weight of 26-31 g (five mice per group). As the source of the malarial infection for this experiment, murine malarial parasite, Plasmodium berghei NK65 strain was used.
# Blood sample was drawn by cardiac puncture from each of the donor ICR mice which had been infected with Plasmodium berghei NK65 strain. […]
# For sake of convenience, a time schedule was so set that the time of inoculating the test mice with the malarial parasite by intravenous injection of the cell suspension of the parasitized red blood cells was Day 0. […] For both of the untreated test group and the treated test group, the rate (%) of infection of the red blood cells with the malarial parasite in each of the mouse blood samples was evaluated. […] The rate (%) of inhibition against the proliferation of the malarial parasite used here indicates such value as calculated by the following equation: [formula] where A means the average rate (%) of infection of the red blood cells with the malarial parasite as effected in the untreated test group, and B means the average rate (%) of infection of the red blood cells with the malarial parasite as effected in the treated test group.
# [3] = Acute toxicity, intraperitoneal injection; format: in vivo; conditions: mouse, in vivo, ip; ICR mice, intraperitoneal administration, 14th day
# Description: (§1) SF2487 substance (Na salt) in the form of a solution dissolved in a physiological saline containing 10% DMSO was administered to ICR mice (5-weeks old, 3 mice per group) in different doses by intraperitoneal injection.
# ICR mice = assay: Acute toxicity, intraperitoneal injection; format: in vivo; conditions: 14th day, 3 mice per group
# Description: as §1
# Solubility in solvents = format: physicochemical
# [4] = read-out: EC50 values, namely molar concentrations of test compound for the 50% inhibition of proliferation, P. falciparum FCR-3 strain, 72 hours incubation
# [5] = read-out: EC50 values, namely molar concentrations of test compound for the 50% inhibition of proliferation, the F28-7 cell line, F28-7 cell line, 48 hours incubation
# [6] = 48 h, read-out: EC50 values, namely molar concentrations of test compound for the 50% inhibition of proliferation, the F28-7 cell line
# [7] = 1 × 10^−7 Molar test compound in culture medium
structure (smiles),measurement,setting,value
"C=C[C@H]1C[N@@]2CC[C@H]1C[C@H]2[C@H](O)c1ccnc2ccc(OC)cc12 [Quinine, reference compound]",Selective toxicity,Plasmodium falciparum,910
same,EC50,Plasmodium falciparum; [4],110 nM
same,EC50,[1]; [5],100000 nM
"C[C@@H]1CC[C@H]2[C@@H](C)C(=O)O[C@@H]3O[C@@]4(C)CC[C@@H]1[C@]32OO4 [Artemisinin, reference compound]",EC50,Plasmodium falciparum; [4],7.8 nM
same,EC50,[1]; [5],10000 nM
"CCc1nc(N)nc(N)c1-c1ccc(Cl)cc1 [Pyrimethamine, reference compound]",Selective toxicity,Plasmodium falciparum,120
same,EC50,Plasmodium falciparum; [4],1 nM
same,EC50,[1]; [5],120 nM
"OC(c1cc(C(F)(F)F)nc2c(C(F)(F)F)cccc12)C1CCCCN1 (stereo not drawn) [Mefloquine, reference compound]",Selective toxicity,Plasmodium falciparum,91
same,EC50,Plasmodium falciparum; [4],32 nM
same,EC50,[1]; [5],2900 nM
"CCN(CC)CCCC(C)Nc1ccnc2cc(Cl)ccc12 (stereo not drawn) [Chloroquine, reference compound]",EC50,Plasmodium falciparum; [4],18 nM
same,EC50,[1]; [6],32000 nM
C=C1OC(O)=C(C(=O)C(OC)C2C(/C=C(\CO)C3CCC(C)C(/C(C)=C/CC4OC(C)(C5CCC(C(O)CC)O5)CC4C)O3)CC(C)C(O)C2CO)C1=O (stereo not drawn) [SF2487 substance Na salt],Rate (%) of proliferation of malarial parasite,Plasmodium falciparum; [7],0%
same,Rate (%) of proliferation of malarial parasite,Plasmodium falciparum; 1 × 10^−8 Molar test compound in culture medium,10%
same,Rate (%) of proliferation of malarial parasite,Plasmodium falciparum; 1 × 10^−9 Molar test compound in culture medium,60%
same,Rate (%) of proliferation of malarial parasite,Plasmodium falciparum; 1 × 10^−10 Molar test compound in culture medium,100%
same,Rate (%) of proliferation of malarial parasite,Plasmodium falciparum; 3 × 10^−8 Molar test compound in culture medium,5%
same,Rate (%) of proliferation of malarial parasite,Plasmodium falciparum; 3 × 10^−9 Molar test compound in culture medium,40%
same,Rate (%) of proliferation of malarial parasite,Plasmodium falciparum; 3 × 10^−10 Molar test compound in culture medium,100%
same,Rate (%) of proliferation of malarial parasite,Plasmodium falciparum; 7 × 10^−8 Molar test compound in culture medium,0%
same,Rate (%) of proliferation of malarial parasite,Plasmodium falciparum; 7 × 10^−9 Molar test compound in culture medium,25%
same,Rate (%) of proliferation of malarial parasite,Plasmodium falciparum; 7 × 10^−10 Molar test compound in culture medium,85%
same,EC50,"Plasmodium falciparum; Plasmodium falciparum, Erythrocyte, read-out: concentration necessary to inhibit the proliferation of malarial parasite by 50% (EC50)",2 nM
same,Selective toxicity,Plasmodium falciparum,800
same,Rate (%) of proliferation of cells of the F28-7 cell line,[1]; 1 × 10^−5 Molar test compound in culture medium,0%
same,Rate (%) of proliferation of cells of the F28-7 cell line,[1]; 1 × 10^−6 Molar test compound in culture medium,58%
same,Rate (%) of proliferation of cells of the F28-7 cell line,[1]; [7],100%
same,Rate (%) of proliferation of cells of the F28-7 cell line,[1]; 3 + 10^−5 Molar test compound in culture medium,0%
same,Rate (%) of proliferation of cells of the F28-7 cell line,[1]; 3 × 10^−6 Molar test compound in culture medium,45%
same,Rate (%) of proliferation of cells of the F28-7 cell line,[1]; 3 × 10^−7 Molar test compound in culture medium,100%
same,Rate (%) of proliferation of cells of the F28-7 cell line,[1]; 7 × 10^−6 Molar test compound in culture medium,10%
same,Rate (%) of proliferation of cells of the F28-7 cell line,[1]; 7 × 10^−7 Molar test compound in culture medium,70%
same,EC50,[1]; [6],1600 nM
same,EC50,[1]; read-out: concentration necessary to inhibit the proliferation of cells of the F28-7 cell line by 50% (EC50),1600 nM
same,rate (%) of inhibition against the proliferation of the malarial parasite,[2],80%
same,LD50 at 14 days,[3],≥ 25 mg/kg
same,mortality,ICR mice; 12.5 mg/kg intraperitoneal injection,all three mice survived
same,mortality,ICR mice; 25 mg/kg intraperitoneal injection,one mouse died among three mice
same,solubility,"Solubility in solvents; in chloroform, ethyl acetate and dimethylsulfoxide",soluble
same,solubility,Solubility in solvents; in ethanol,slightly soluble
same,solubility,Solubility in solvents; in water,hardly soluble
